Six compounds from patent US5215907A, “Thermostable acid protease from sulfolobus acidocaldarius” (Oklahoma Medical Research Foundation, priority 1992, dated 1993) can be followed below.

Structures are written as SMILES. “Also recorded” adds a separate entry of the source. Numbered stars: 1 amine (or outer) side, 2 acyl side, 3 side chain; on linkers, the order of the positions; unused ones are H or OH. Peptide text beside a SMILES is read from it. CO = O=C([*:1])[*:2]

This test concerns the target T1, thermopsin, thermostable acid protease purified from Sulfolobus acidocaldarius culture medium (Sulfolobus acidocaldarius, UniProt P17118).
T1 construct: The purification of thermopsin, therefore, was carried out using culture media as starting material; endogenous in cells; host or cells: Sulfolobus acidocaldarius (natural producer); enzyme purified in-house from the culture medium, not recombinant
T1 sequence (P17118 42-340): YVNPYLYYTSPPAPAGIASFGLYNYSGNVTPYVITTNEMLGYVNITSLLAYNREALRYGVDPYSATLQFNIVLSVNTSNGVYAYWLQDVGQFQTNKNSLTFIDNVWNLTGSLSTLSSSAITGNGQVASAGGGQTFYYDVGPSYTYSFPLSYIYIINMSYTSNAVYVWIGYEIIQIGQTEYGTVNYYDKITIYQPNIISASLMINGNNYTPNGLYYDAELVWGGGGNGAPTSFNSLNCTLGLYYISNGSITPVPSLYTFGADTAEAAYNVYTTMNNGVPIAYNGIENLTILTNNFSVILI
The test can be described thus: Effects of proteinase inhibitors on thermopsin proteolytic activity (14C-methylated hemoglobin assay). Type of test: biochemical. As to conditions: no concentration stated; see Table II. Here is the method: Proteolytic activity is routinely assayed using ^14 C-methylated bovine hemoglobin as substrate, as prepared according to the method of Lin, et al., J. Biol. Chem., (1989, in press). The assay mixture, containing 0.51% hemoglobin substrate and thermopsin in 0.1 ml of 0.1M sodium formate, pH 3.2, is placed in an Eppendorf tube. After incubation at 80° C. for a period of time between 5 to 30 min, depending on the level of activity of thermopsin used, an aliquot of 0.1 ml of 10% trichloracetic acid is added to stop the reaction and precipitate the protein. After removal of the precipitate by centrifugation, the radioactivity of an aliquot of the clear supernate is determined in a scintillation counter.
The effect of various protease inhibitors on the activity of thermopsin was tested.
Thermopsin is preincubated with the indicated level of inhibitor in 0.1 M
phosphate buffer, pH 6.0, containing 1 mM EDTA and DTT at 37° C.
for 5 min. Sodium formate (pH 3.2) and ^14 CHemoglobin is then added
to a concentration as described above. The enzyme assay is then carried
out at 80° C. for 15 min. Enzyme activity is expressed as percent

On to `CCCCC(NC(=O)C=[N+]=[N-])C(=O)OC` (racemic) [DAN, diazoacetyl-DL-norleucinemethlyester], for which the “effect of inhibitor on thermopsin activity (in words)” value (“effect of inhibitor” below) is recorded as “not inactivated; also recorded: no effect”. Then `Cc1ccc(S(=O)(=O)N[C@@H](CCCCN)C(=O)CCl)cc1` [TLCK, N-p-Tosyl-1-lysine chloromethyl ketone], with “much less effective”; and `Cc1ccc(S(=O)(=O)N[C@@H](Cc2ccccc2)C(=O)CCl)cc1` [TPCK, N-Tosyl-L-phenylalanine chloromethyl ketone], with “significantly inactivate; also recorded: significant inhibition”. As for `CC(C)[C@H](NC(=O)[C@H](CCCNC(=N)N)NC(=O)N[C@@H](Cc1ccccc1)C(=O)O)C(=O)N[C@H](C=O)CCCNC(=N)N` [Antipain, antipain] ({Phe-CO}-Arg-Val-Arg-aldehyde), the “effect of inhibitor” value is listed as “inhibited; also recorded: significant inhibition”. For `CCN1C(=O)C=CC1=O` [N-ethylmaleimide], the “effect of inhibitor” value was “little effect”. Regarding `O=S(=O)(F)Cc1ccccc1` [PMSF, phenylmethylsulfonyl fluoride], the “effect of inhibitor” value is given as “significantly inactivate; also recorded: significant inhibition”.
